Assay results reported in patent US8883841B2, “Oncogenic ras-specific cytotoxic compound and methods of use thereof” (The Board of Regents of the University of Texas System, priority 2005, dated 2014).

Tests used:
[1] = system: RNA transcription (HeLa cell nuclear extracts); assay: In vitro transcription assay with HeLa nuclear extracts; type: biochemical
Method: (§1) FIGS. 16A and 16B Effect on RNA processing machinary. (FIG. 16A) T29, T29Kt1, and H460 cells were treated with 10 μM Oncrasin-1 (T29 and T29Kt1) or 1 μM Oncrasin-1 (H460). Twelve hours later, cells were harvested for Western blot analysis for phosphorylation of RNA polymerase II and SR proteins. Cells treated with DMSO were used as control (C). (T) cells treated with Oncrasin-1. Arrows indicate reduced phosphorylation of the polymerase II (pPolII) and SR proteins (pSR) (FIG. 16B) In vitro transcription assay with HeLa cell nuclear extracts (Promoega). The assay was performed following manufacturers instructions. The concentrations used are indicated on the top of the panel. DRB was used as positive control for transcription inhibition.
(§2) To further test the role of RNA transcription and splicing in Oncrasin-mediated antitumor activity the phosphorylation of the largest subunit of RNA polymerase II and splicing factors were analyzed. T29, T29Kt1 and H460 cells were treated with Oncrasin-1 at an optimal concentration, around IC60 to IC80 for T29Kt1 and H460 cells. Cell lysates were collected 12 h after the treatment and subjected to Western blot analysis with antibodies specific for phosphorylated RNA polymerase If (H5, Covance Research Products, Inc., Berkeley, Calif.) and SR proteins (1H4, Zymed, obtained from Invitrogen, Carlsbad, Calif.).

phosphorylated PKCiota = assay: Western blot analysis of phosphorylated PKCiota; type: cell-based, human; settings: 12 h
Method: (§3) Ras Signaling Pathway and Molecular Mechanisms of Oncrasin-induced apoptosis. To investigate molecular mechanisms of apoptosis induction by Oncrasin compounds, levels several proteins that are involved in apoptosis and/or involved in Ras signaling pathways were determined, including Bax, Bik, Bc12, Bcl-XL, Raf-1, B-Raf, Akt, Mst1 and atypical protein kinase C (aPKC) zeta and PKCiota. To study which molecules are affected by Oncrasin treatment, T29, T29Kt1 and H460 cells were treated with Oncrasin-1 at an optimal concentration, around IC60 to IC80 for T29Kt1 and H460 cells. Cell lysates were collected 12 h after the treatment and subjected to Western blot analysis.

[2] = system: phosphorylated RNA polymerase II and SR proteins; assay: Western blot for phosphorylated RNA polymerase II and SR proteins; type: cell-based, human; settings: 10 μM (T29Kt1) or 1 μM (H460), 12 h
Method: as §1, §2

Akt = assay: Western blot analysis of Akt; type: cell-based, human; settings: 1 μM, 12 h
Method: as §3

Icmt−/− MEF = assay: Icmt-dependent growth inhibition, Icmt−/− MEF; type: cell-based, mouse; settings: up to 100 μM
From the text: Oncrasin and Oncrasin Analogs. Chemically, Oncrasin-1 has the same core structure as indole-3-carbinol, a naturally occurring constituent of many plant foods that has been tested for the prevention and treatment of cancer (Brignall, 2001; Kelloff et al., 1996; Chinni et al., 2001). Oncrasin-1 also has structural similarity to sulindac (Taylor et al., 2000; Sun et al., 2002) and lonidamine (Ravagnan et al., 1999; Papaldo et al., 2003), both of which have been evaluated preclinically and clinically for treatment of cancers. […] Oncrasin compounds also bear a indole core structure as the small-molecule inhibitor of isoprenylcysteine carboxylmethyltransferase (Icmt), 2-[5-(3-methylphenyl)-1-octyl-1H-indol-3-yl]acetamide (cysmethynil), which also induces antitumor activity in Ras gene mutant cancer cells (Winter-Vann et al., 2005). […] Both wild-type MEF and Icmt−/− MEF (Bergo et al., 2004) (kindly provided by Dr. S G Young at the University of California, San Francisco) were resistant to Oncrasin-1.

[3] = system: H460 cells transfected with Raf-1 constructs; assay: SRB cell viability of H460 cells stably transfected with Raf-1 plasmids; type: cell-based, human; settings: vs parental H460
Method: FIGS. 10A-10D Effect of Oncrasin-1 on Raf-1 expression. (FIG. 10A) H460 cells were treated with various concentrations of Oncrasin-1 and harvested 24 h later for Western blot analysis. (FIG. 10B) Reverse transcriptase-based polymerase chain reaction (RT-PCR) assay. H460 cells treated with 1 μM Oncrasin-1 for various times or at various concentrations for 24 h, as indicated. (+, −, positive and negative controls). […] (FIG. 10D) Dose effects of Oncrasin-1 on stable cell lines transfected with Raf-1 plasmids. Parental H460 cells and H460 cells transfected with wild-type Raf-1 (Raf-1), constitutive Raf-1 (Raf-1C), or dominant-negative Raf-1 Raf-1/DN) were treated with various concentrations of Oncrasin-1, and cell viability was determined by SRB assay.
Suppression of Raf-1 expression by Oncrasin-1. […] To elucidate the roles of Raf-1 in Oncrasin-induced apoptosis, the inventors evaluated the expression of Raf-1 in H460 cells after treatment with different concentrations of Oncrasin-1. […] Because Raf-1 executes anti-apoptosis function via a variety of pathways. […] However, the resistance to Oncrasin-1 was more prominent in the constitutively active Raf-1-transfected cells than in cells with the wild-type Raf-1 (FIG. 10C and FIG. 10D).

Rad51 = assay: Antibody staining, subcellular localization of Rad51; type: cell-based, human; settings: T29Kt1 cells
From the text: Effects on RNA spliceosome. To investigate the nature of this PKCiota aggregates in the nucleus, the effect of Oncrasin-1 on SC35, a protein required for RNA splicing and assembly of spliceosome (Fu et al., 1992; Vellard et al., 1992), and on Rad51, a homologous DNA recombinase that involves in DNA repair (Benson et al., 1994; Baumann et al., 1996) were studied. […] and DNA repairing are the two important functions executed in the nucleus. In untreated or DMSO-treated cells, SC35 was localized in nucleus as speckles, either diffusely distributed or concentrated as granule clusters (Mistele et al., 1997), whereas Rad51 was more uniformly distributed inside the nucleus. […] This aggregation of SC35 was not observed in Oncrasin resistant T29 cells upon the treatment with Oncrasin-1. […] The effects of Oncrasin on another spliceosome protein, alternative splicing factor/splicing factor 2 (ASF/SF2), was studied (Krainer et al., 1991). […] In the resistant T29 cells, however, such an aggregation is not observed (FIG. 8C).

O=Cc1cn(Cc2ccc(Cl)cc2)c2ccccc12 [Oncrasin K001, 1H-Indole-3-carboxaldehyde, 1-[(4-chlorophenyl)methyl]-(9CI)]
in vitro RNA transcription [1]: does not inhibit in vitro RNA transcription directly
phosphorylated PKCiota in H460 and T29K cells (phosphorylated PKCiota): increase in phosphorylated PKCiota
phosphorylated PKCiota in T29 cells (phosphorylated PKCiota): but not in Oncrasin-1 resistant T29 cells
phosphorylated RNA polymerase II and certain SR proteins [2]: dramatic suppression
Akt level in H460 cells (Akt): down regulation
growth inhibition, Icmt−/− MEF (Icmt−/− MEF): resistant
susceptibility of H460 cells transfected with dominant-negative Raf-1 [3]: more sensitive
susceptibility of H460 cells transfected with wild-type or constitutively active Raf-1 [3]: less susceptible than parental H460 cells
effect on Rad51 (Rad51): no obvious effect
